Test results as given in ChEMBL document CHEMBL3886421, “6-thio-substituted imidazo[1,2-a]pyrazines as Mps-1 inhibitors” (2015).

Biological target: T1, Dual specificity protein kinase TTK (Homo sapiens, UniProt P33981)
T1 sequence (P33981 whole entry): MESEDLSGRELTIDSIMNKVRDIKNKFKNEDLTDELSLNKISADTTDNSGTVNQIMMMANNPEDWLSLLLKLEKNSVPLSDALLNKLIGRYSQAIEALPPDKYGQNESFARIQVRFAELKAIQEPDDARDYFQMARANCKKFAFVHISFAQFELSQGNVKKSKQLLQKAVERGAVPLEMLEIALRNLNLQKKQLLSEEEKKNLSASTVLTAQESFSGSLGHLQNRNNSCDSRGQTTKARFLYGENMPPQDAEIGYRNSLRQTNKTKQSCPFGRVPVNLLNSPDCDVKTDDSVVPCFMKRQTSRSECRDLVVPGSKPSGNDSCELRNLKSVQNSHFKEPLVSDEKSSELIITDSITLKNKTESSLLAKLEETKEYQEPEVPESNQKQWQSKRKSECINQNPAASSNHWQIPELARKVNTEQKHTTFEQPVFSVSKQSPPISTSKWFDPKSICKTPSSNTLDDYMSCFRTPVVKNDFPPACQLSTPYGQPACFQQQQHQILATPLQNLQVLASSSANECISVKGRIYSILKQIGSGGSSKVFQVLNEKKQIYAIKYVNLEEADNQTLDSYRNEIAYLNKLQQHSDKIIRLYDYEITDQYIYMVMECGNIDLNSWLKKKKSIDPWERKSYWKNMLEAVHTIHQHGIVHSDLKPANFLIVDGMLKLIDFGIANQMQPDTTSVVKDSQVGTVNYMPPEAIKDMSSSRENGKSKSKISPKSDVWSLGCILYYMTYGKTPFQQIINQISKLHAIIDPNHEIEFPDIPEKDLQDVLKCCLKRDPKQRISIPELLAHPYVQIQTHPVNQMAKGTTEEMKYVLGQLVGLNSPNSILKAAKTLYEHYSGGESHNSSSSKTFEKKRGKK
Experiment: Kinase Assay: For the assay 50 nL of a 100-fold concentrated solution of the test compound in DMSO was pipetted into a black low volume 384 well microtiter plate (Greiner Bio-One, Frickenhausen, Germany), 2 ul of a solution of Mps-1 in assay buffer [0.1 mM sodium-ortho-vanadate, 10 mM MgCl2, 2 mM DTT, 25 mM Hepes pH 7.7, 0.05% BSA, 0.001% Pluronic F-127] were added and the mixture was incubated for 15 min at 22° C. to allow pre-binding of the test compounds to Mps-1 before the start of the kinase reaction. Then the kinase reaction was started by the addition of 3 ul of a solution of 16.7 adenosine-tri-phosphate (ATP, 16.7 uM=>final conc. in the 5 ul assay volume is 10 uM) and peptide substrate (1.67 uM=>final conc. in the 5 ul assay volume is 1 uM) in assay buffer and the resulting mixture was incubated for a reaction time of 60 min at 22° C. The concentration of Mps-1 in the assay was adjusted to the activity of the enzyme lot.

IC50: 0.0521 µM
Compound: CCCSc1cn2c(-c3ccc(C(=O)NC4CC4)c(C)c3)cnc2c(NCC(C)(C)O)n1
